The text below walks through data of US10189853B2, “Conformationally restricted 4-substituted-2,6-dimethylfuro[2,3-d]pyrimidines as anti-tumor agents” (DUQUESNE UNIVERSITY OF THE HOLY SPIRIT, priority 2014, dated 2019).

Data set [1] concerns the target PDGFR-β (Homo sapiens (Human), UniProt P09619). Description: PDGFR-β kinase inhibition, phosphotyrosine ELISA cytoblot. The data set is classed as cell-based. The following applies: SH-SY5Y cells, phosphotyrosine ELISA.
Experimental: (§1) Cells used were tumor cell lines naturally expressing high levels of EGFR (A431), VEGFR-2 (U251), and PDGFR-β (SH-SYSY). […] The reaction was stopped and cells were permeabilized by quickly removing the media from the cells and adding ice-cold Tris-buffered saline (TBS) containing 0.05% Triton X-100, protease inhibitor cocktail and tyrosine phosphatase inhibitor cocktail. The TBS solution was then removed and cells fixed to the plate for 30 min at 60° C. and further incubation in 70% ethanol for an additional 30 min. Cells were further exposed to block (TBS with 1% BSA) for 1 h, washed, and then a horseradish peroxidase (HRP)-conjugated phosphotyrosine (PY) antibody was added overnight.
Data set [2] has as its system A431 cancer cells. Description: A431 cytotoxicity (cell proliferation). Format: cell-based, human.
For data set [3], the system named is chicken embryo chorioallantoic membrane. Description: Chorioallantoic membrane (CAM) assay of angiogenesis. The following applies: Gallus gallus, 48 h, read-out: CAM angiogenesis inhibition.
For data set [4], the system named is cellular microtubules in A-10 cells. Description: Microtubule depolymerization, indirect immunofluorescence. The following applies: for EC50: A-10 cells, 18 h, read-out: EC50 for MT depolymerization in A-10 cells; for effect on cellular microtubules: in words. Format: cell-based.
Experimental: Evaluation of microtubule inhibition was performed using previously described methods.^22 Indirect immunofluorescence was used to evaluate the effects of the compounds on cellular microtubules as described previously.^38 Briefly, A-10 cells were treated for 18 h with vehicle (DMSO) or a compound, and microtubule effects were evaluated microscopically using β-tubulin antibody. The EC50 was calculated from 3 independent experiments and expressed as the mean±SD.
Data set [5] relates to purified tubulin. Description: Inhibition of tubulin assembly. Format: biochemical. The following applies: read-out: Inhibition tubulin assembly IC50 ± SD.
Data set [6] deals with EGFR (Homo sapiens (Human), UniProt P00533). Description: EGFR kinase inhibition, phosphotyrosine ELISA cytoblot. Format: cell-based. The following applies: A431 cells. A general note: An ELISA detects its analyte on a solid surface through an enzyme-linked reagent.
Experimental: as §1
For data set [7], the target named is VEGFR-2 (Homo sapiens (Human), UniProt P35968). Description: VEGFR-2 kinase inhibition, phosphotyrosine ELISA cytoblot. Format: cell-based. The following applies: U251 cells, phosphotyrosine ELISA.
In data set [8] the test system is WTβ3 cells (HeLa overexpressing βIII tubulin). Description: Antiproliferative SRB assay. Format: cell-based. The following applies: SRB, 48 h, read-out: IC50 ± SD in WTβ3. On the technique in general: Sulforhodamine B stains cellular protein and so reports cell mass.
Data set [9] has as its system MDA-435 cells. Description: Antiproliferative SRB assay. Format: cell-based. The following applies: read-out: IC50 ± SD in MDA-435 cells.
Data set [10] concerns SKOV3 cells. Description: Antiproliferative SRB assay. The following applies: read-out: IC50 ± SD in SKOV3 cells. Format: cell-based.
In data set [11] the test system is M6/6 cells (SK-OV-3 expressing Pgp). Description: Antiproliferative SRB assay. The following applies: for IC50: read-out: IC50 ± SD in M6/6 cells, SRB, 48 h.
Data set [12] concerns colchicine site on tubulin. Description: Inhibition of [3H]colchicine binding. The following applies: 5 μM.
Data set [13] concerns HeLa cells. Description: Antiproliferative SRB assay. The following applies: 48 h, read-out: IC50 ± SD in HeLa. The data set is classed as cell-based.

Like-named read-outs stand apart in the source and are kept apart here.

Sequence of PDGFR-β (P09619 33-1106): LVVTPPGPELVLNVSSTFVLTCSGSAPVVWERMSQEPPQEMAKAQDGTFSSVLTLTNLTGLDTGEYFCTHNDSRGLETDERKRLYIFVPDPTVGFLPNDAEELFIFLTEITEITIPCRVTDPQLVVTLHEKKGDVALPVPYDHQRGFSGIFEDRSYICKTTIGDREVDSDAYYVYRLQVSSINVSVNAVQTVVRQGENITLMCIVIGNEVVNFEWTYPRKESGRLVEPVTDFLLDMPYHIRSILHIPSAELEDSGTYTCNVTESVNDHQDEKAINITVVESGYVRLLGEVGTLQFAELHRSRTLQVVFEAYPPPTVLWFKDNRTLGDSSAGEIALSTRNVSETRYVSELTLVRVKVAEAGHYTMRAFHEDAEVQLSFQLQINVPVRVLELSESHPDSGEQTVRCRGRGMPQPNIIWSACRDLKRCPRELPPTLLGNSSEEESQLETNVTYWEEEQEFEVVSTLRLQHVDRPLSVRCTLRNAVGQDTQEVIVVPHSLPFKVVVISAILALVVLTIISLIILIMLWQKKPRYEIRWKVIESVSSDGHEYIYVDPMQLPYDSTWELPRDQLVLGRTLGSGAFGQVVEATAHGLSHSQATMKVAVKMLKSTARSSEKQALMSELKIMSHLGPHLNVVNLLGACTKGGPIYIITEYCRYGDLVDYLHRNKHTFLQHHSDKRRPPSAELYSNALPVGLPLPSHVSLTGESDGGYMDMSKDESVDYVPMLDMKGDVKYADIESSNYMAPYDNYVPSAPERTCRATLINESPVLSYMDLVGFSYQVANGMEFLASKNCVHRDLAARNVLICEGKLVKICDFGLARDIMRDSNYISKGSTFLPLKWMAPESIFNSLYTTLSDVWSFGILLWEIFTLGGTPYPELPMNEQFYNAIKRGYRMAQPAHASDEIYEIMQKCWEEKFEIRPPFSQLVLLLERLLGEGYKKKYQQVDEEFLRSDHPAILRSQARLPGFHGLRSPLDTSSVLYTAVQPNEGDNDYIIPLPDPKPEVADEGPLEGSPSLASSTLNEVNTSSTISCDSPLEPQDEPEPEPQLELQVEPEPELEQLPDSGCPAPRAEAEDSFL
Sequence of EGFR (P00533 25-1210): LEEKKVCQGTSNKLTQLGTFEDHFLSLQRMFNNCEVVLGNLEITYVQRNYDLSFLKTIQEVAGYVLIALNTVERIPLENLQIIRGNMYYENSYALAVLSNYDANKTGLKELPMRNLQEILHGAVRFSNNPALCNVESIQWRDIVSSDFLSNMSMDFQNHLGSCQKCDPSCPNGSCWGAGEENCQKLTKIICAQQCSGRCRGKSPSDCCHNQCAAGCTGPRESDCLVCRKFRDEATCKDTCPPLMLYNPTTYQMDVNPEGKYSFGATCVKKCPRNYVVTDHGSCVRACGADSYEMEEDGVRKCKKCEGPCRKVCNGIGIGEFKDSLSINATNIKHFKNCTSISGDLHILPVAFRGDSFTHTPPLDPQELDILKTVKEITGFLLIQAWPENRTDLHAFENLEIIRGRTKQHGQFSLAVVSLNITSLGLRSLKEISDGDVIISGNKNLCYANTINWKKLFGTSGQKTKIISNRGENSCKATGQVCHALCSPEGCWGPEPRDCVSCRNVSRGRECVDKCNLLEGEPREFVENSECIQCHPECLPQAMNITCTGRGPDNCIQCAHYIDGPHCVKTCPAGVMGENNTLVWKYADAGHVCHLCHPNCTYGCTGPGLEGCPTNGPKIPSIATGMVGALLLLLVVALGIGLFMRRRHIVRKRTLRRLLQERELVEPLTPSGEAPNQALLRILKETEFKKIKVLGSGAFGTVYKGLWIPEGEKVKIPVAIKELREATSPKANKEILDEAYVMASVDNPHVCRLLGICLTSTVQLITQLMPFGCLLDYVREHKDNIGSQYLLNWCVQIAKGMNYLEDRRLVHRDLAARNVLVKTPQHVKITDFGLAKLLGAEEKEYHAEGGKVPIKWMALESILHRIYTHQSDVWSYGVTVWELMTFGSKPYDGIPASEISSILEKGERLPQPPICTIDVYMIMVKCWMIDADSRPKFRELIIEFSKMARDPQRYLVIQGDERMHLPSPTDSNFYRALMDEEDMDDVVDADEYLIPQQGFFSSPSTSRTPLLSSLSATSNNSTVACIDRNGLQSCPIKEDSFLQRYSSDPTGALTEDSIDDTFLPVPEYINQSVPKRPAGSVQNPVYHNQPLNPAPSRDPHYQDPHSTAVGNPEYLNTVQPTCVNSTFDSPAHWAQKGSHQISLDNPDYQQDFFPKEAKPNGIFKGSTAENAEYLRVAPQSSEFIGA
Sequence of VEGFR-2 (P35968 20-1356): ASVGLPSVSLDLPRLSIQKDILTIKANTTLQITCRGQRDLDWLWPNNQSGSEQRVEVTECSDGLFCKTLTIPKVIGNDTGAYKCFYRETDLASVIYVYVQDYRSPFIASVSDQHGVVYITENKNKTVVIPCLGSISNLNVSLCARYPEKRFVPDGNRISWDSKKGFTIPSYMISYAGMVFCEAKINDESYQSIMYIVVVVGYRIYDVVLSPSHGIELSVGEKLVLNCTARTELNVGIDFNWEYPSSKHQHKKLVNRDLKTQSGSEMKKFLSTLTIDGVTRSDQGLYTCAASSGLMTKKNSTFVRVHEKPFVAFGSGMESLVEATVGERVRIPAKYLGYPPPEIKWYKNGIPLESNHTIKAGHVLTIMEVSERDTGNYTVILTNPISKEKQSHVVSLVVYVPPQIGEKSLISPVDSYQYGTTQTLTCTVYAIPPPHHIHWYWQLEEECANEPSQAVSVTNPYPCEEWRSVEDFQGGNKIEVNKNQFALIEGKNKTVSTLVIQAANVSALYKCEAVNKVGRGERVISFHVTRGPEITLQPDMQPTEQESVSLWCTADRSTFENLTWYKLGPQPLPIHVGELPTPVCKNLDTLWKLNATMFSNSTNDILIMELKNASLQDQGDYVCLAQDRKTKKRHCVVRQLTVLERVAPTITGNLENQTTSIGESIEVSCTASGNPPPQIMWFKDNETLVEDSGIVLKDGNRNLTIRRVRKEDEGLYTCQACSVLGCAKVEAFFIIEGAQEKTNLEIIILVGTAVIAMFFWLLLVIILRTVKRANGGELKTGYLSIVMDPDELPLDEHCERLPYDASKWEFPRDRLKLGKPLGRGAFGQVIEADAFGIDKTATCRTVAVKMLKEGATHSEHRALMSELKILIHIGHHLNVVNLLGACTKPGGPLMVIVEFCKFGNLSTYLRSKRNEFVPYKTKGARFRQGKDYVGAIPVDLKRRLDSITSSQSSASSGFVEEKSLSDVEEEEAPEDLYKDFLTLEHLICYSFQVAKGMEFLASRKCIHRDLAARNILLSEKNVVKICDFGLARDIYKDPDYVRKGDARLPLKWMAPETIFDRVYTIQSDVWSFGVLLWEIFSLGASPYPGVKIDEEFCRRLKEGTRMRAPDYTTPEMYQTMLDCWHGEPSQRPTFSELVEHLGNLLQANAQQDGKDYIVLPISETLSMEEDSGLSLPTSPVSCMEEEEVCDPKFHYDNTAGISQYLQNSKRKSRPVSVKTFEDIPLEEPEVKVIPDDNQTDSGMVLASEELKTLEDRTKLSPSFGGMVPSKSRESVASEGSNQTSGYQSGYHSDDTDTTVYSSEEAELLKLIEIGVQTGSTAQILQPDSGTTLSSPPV

One may read the EC50 as the midpoint of the concentration-response curve. For the molecule `COc1cc(N(C)c2nc(C)nc3oc(C)cc23)cc(OC)c1OC` [Compound 4, N,2,6-trimethyl-N-(3,4,5-trimethoxyphenyl)furo[2,3-d]pyrimidin-4-amine], the IC50 in [1] is 0.166 ± 0.0202 µM; in data set [2] (Homo sapiens, A-431), > 0.3 µM; in [3] it was > 300 µM. The EC50 in data set [4] (Rattus norvegicus, A10) is > 10 µM.

Regarding `CCOc1ccc(N(C)c2nc(C)nc3oc(C)cc23)cc1` [Compound 11, N-(4-ethoxyphenyl)-N,2,6-trimethylfuro[2,3-d]pyrimidin-4-amine], the IC50 in [2] (Homo sapiens, A-431) is 0.0116 ± 0.0021 µM; in data set [3] it was 50.1 ± 8.2 µM. For the same molecule, the 50% effective concentration (EC50) in [4] (Rattus norvegicus, A10) is > 10 µM.

With `COc1ccc(N(C)c2nc(C)nc3oc(C)cc23)cc1` [Compound 1, reference compound], the IC50 in data set [5] stood at 2.4 ± 0.01 µM. For the same molecule, the EC50 in data set [4] was 0.103 µM.

As for `COc1ccc(N(C)c2nc(C)nc3oc(C)cc23)cc1OC` [Compound 3, N-(3,4-dimethoxyphenyl)-N,2,6-trimethylfuro[2,3-d]pyrimidin-4-amine], the IC50 in data set [1] turned out to be 0.0661 ± 0.0081 µM; in data set [2] (Homo sapiens, A-431), 0.0097 ± 0.0012 µM; in data set [6], 0.0903 ± 0.0102 µM; in data set [7], 0.0186 ± 0.003 µM. For the same molecule, in [4], the “effect on cellular microtubules” value is reported as “dose-dependent loss of cellular microtubules”.

For the molecule `CC(=O)O[C@H]1C(=O)[C@@]2(C)[C@H]([C@H](OC(=O)c3ccccc3)[C@]3(O)C[C@H](OC(=O)[C@H](O)[C@@H](NC(=O)c4ccccc4)c4ccccc4)C(C)=C1C3(C)C)[C@]1(OC(C)=O)CO[C@@H]1C[C@@H]2O` [Paclitaxel, reference compound], the IC50 in data set [8] (Homo sapiens, HeLa) was 0.0329 ± 0.0058 µM; in data set [9] (MDA435, 48 h) it was 0.0033 ± 0.0003 µM; in data set [10] (Homo sapiens, SK-OV-3, 48 h), 0.0063 ± 0.0004 µM.

On to `COc1ccc2c(c1)CCN2c1nc(C)nc2oc(C)cc12` [Compound 8, 4-(5-methoxyindolin-1-yl)-2,6-dimethylfuro[2,3-d]pyrimidine], for which the IC50 in [1] was determined as 0.0732 ± 0.0049 µM; in data set [2] (Homo sapiens, A-431), 0.0422 ± 0.005 µM; in data set [6], 0.103 ± 0.0182 µM; in [7], 0.0209 ± 0.0037 µM. Also, the EC50 in data set [4] (Rattus norvegicus, A10) is > 10 µM. For the same molecule, the “effect on cellular microtubules” value in data set [4] is “no effect on cellular microtubules”.

As to `Cc1nc(N(C)c2ccc3c(c2)OCO3)c2cc(C)oc2n1` [Compound 5, N-1,3-benzodioxol-5-yl-N,2,6-trimethylfuro[2,3-d]pyrimidin-4-amine], the IC50 in data set [1] stood at 0.0501 ± 0.0078 µM; in [2] (Homo sapiens, A-431), 0.0489 ± 0.0051 µM; in [6] it was 0.298 ± 0.0381 µM; in data set [7] it was 0.0199 ± 0.0021 µM. Besides, the concentration giving a half-maximal response (EC50) in data set [4] (Rattus norvegicus, A10) was > 10 µM.

In the case of `COc1ccc(/C=C\c2cc(OC)c(OC)c(OC)c2)cc1O` [CA-4, combretastatin A-4, reference compound], the IC50 in data set [8] worked out at 0.0057 ± 0.0004 µM; in data set [9] (48 h), 0.005 ± 0.0003 µM; in [11], 0.003 ± 0.0003 µM; in data set [10] (48 h) it was 0.0069 ± 0.0001 µM; in [13], 0.0056 ± 0.0003 µM; in [5], 1 ± 0.09 µM. Besides, the “Inhibition of colchicine binding % inhibition ± SD” value in data set [12] amounted to 99 ± 0.2%. In addition, in [4], the EC50 worked out at 0.0098 µM.

In turn, `COc1ccc(N(C)c2nc(C)nc3oc(C)cc23)c(OC)c1` [Compound 2, N-(2,4-dimethoxyphenyl)-N,2,6-trimethylfuro[2,3-d]pyrimidin-4-amine] gave an IC50 in [2] (Homo sapiens, A-431) of 0.0171 ± 0.002 µM.

Consider `CCCOc1ccc(N(C)c2nc(C)nc3oc(C)cc23)cc1` [Compound 12, N-2,6-trimethyl-N-(4-propoxyphenyl)furo[2,3-d]pyrimidin-4-amine], for which the “Rr value (relative resistance)” value in data set [11] (M6/6 (Pgp) vs SKOV3) was 1.3. Moreover, the IC50 in [11] was 0.0308 ± 0.0017 µM; in [2] it was 0.0929 ± 0.0101 µM.

For the molecule `COc1ccc2c(ccn2-c2nc(C)nc3oc(C)cc23)c1` [Compound 9, 4-(5-methoxy-1H-indol-1-yl)-2,6-dimethylfuro[2,3-d]pyrimidine], the IC50 in data set [2] (Homo sapiens, A-431) was > 0.3 µM; in [3], > 300 µM. Also, the EC50 in data set [4] (Rattus norvegicus, A10) was > 10 µM.
